Source: US9415009B2 (Pearl Therapeutics, Inc., priority 2009, dated 2016)
Values belong to the compound of their own block, whether it stands above or below them.

Experiment: Particle size distribution by laser diffraction (Sympatec, Fraunhofer mode)
Format: physicochemical
Settings: for optical diameter that 50% by volume of the micronized particles are smaller than / optical diameter that 90% by volume of the micronized particles are smaller than: micronized active agent particles
[1] = Example 4, Table 2, micronized API
[2] = Example 9, Table 9, primary particle size
[3] = Example 10, Table 11, Triple GFM primary particle size
[4] = Example 10, Table 12, Triple TFM primary particle size

Span [1]: 2.0
Compound: COc1ccc(C[C@@H](C)NC[C@H](O)c2ccc(O)c(NC=O)c2)cc1 (racemic) [Coarse FF API, (±)-2-hydroxy-5-[(1RS)-1-hydroxy-2-[[(1RS)-2-(4-methoxyphenyl)-1-methylethyl]-amino]ethyl]formanilide]

Span [2]: 1.8
Span [3]: 1.9
Span [4]: 1.9
Span (Example 11, Table 14): 1.8
Compound: COc1ccc(C[C@@H](C)NC[C@H](O)c2ccc(O)c(NC=O)c2)cc1 (racemic) [FF API, (±)-2-hydroxy-5-[(1RS)-1-hydroxy-2-[[(1RS)-2-(4-methoxyphenyl)-1-methylethyl]-amino]ethyl]formanilide]

Span [1]: 1.5
d90 (μm) [1]: 2.3 μm
Compound: COc1ccc(C[C@@H](C)NC[C@H](O)c2ccc(O)c(NC=O)c2)cc1 (racemic) [Fine FF API, (±)-2-hydroxy-5-[(1RS)-1-hydroxy-2-[[(1RS)-2-(4-methoxyphenyl)-1-methylethyl]-amino]ethyl]formanilide]

optical diameter that 50% by volume of the micronized particles are smaller than: 2.6 μm
optical diameter that 90% by volume of the micronized particles are smaller than: 6.6 μm
Compound: CCC(=O)O[C@]1(C(=O)SCF)[C@H](C)C[C@H]2[C@@H]3C[C@H](F)C4=CC(=O)C=C[C@]4(C)[C@@]3(F)[C@@H](O)C[C@@]21C [FP, S-(fluoromethyl)6^α,9-difluoro-11^β-17-dihydroxy-16^α-methyl-3-oxoandrosta-1,4-diene-17^β-carbothioate, 17-propionate]

Span [2]: 2.2
×10 (μm) [2]: 0.4 μm
×50 (μm) [2]: 1.1 μm
×90 (μm) [2]: 2.8 μm
Span [3]: 1.9
d10 (μm) [3]: 0.4 μm
d50 (μm) [3]: 1.0 μm
d90 (μm) [3]: 2.3 μm
Span [4]: 2.2
d10 (μm) [4]: 0.4 μm
d50 (μm) [4]: 1.1 μm
d90 (μm) [4]: 2.8 μm
optical diameter that 50% by volume of the micronized particles are smaller than: 1.6 μm
optical diameter that 90% by volume of the micronized particles are smaller than: 3.5 μm
Compound: C[C@@H]1C[C@H]2[C@@H]3CCC4=CC(=O)C=C[C@]4(C)[C@@]3(Cl)[C@@H](O)C[C@]2(C)[C@@]1(OC(=O)c1ccco1)C(=O)CCl [MF, 9α,21-dichloro-11β,17-dihydroxy-16α-methylpregna-1,4-diene-3,20-dione 17-(2-furoate)]

Compound: C[N+]1(C)[C@@H]2C[C@@H](OC(=O)C(O)(c3cccs3)c3cccs3)C[C@H]1[C@@H]1O[C@@H]12 [Micronized Tiotropium Bromide Anhydrous, tiotropium bromide]
Span [4]: 2.7
d10 (μm) [4]: 0.5 μm
d50 (μm) [4]: 1.3 μm
d90 (μm) [4]: 3.9 μm

Compound: OCc1cc(C(O)CNCCCCCCOCCCCc2ccccc2)ccc1O (stereo not drawn) [SX, 4-hydroxy-α1-[[[6-(4-phenylbutoxy)hexyl]amino]methyl]-1,3-benzenedimethanol, 1-hydroxy-2-naphthalenecarboxylate]
optical diameter that 50% by volume of the micronized particles are smaller than: 2 μm
optical diameter that 90% by volume of the micronized particles are smaller than: 3.9 μm
